“Also recorded” adds a separate entry of the source. Blank lines part the entries; values can stand above or below the molecule they belong to.
Experiments:
mouse aortic rings [1] = test: Angiogenesis in mouse aortic rings embedded in Matrigel (new vessel count); assay type: cell-based; details: for effect on the angiostatic effect of corticosterone / direct effect on angiogenesis in aortic rings (drug alone): drug 10^−6 M; for effect on the angiostatic effect of corticosterone: corticosterone 600 nM; for direct effect on angiogenesis in aortic rings (drug alone): no glucocorticoid
Procedure: Mice were killed humanely and thoracic aortae were removed, washed in serum free MCDB 131 medium (Invitrogen, UK), cleaned of periadventitial tissue and divided into 1-3 mm rings.
To quantify angiogenesis aortic rings were embedded in 200 μl of steroid free Matrigel (Becton Dickinson, UK) and incubated at 37° C. in serum free MCDB 131, with heparin, ascorbic acid, and GA1000 (Cambrex Biosciences, UK) in the presence and absence of: corticosterone (3 nM, 30 nM, 300 nM, 600 nM); 11-dehydrocorticosterone (300 nM, 60 nM); the glucocorticoid receptor antagonist, RU38486 (10^−6M)^59, the mineralocorticoid receptor antagonist, spironolactone (10^−6 M)^60; and/or the […] 11βHSD inhibitor, carbenoxolone (10^−4-10^−6M)^31. All drugs (Sigma-Aldrich, UK) were dissolved in ethanol and diluted in aqueous solution; final ethanol concentration 1-3% v/v. Media were changed every 48 hours. Experiments were performed in triplicate. In initial experiments, new vessels were counted daily using light microscopy (FIG. 1). From these studies day 7 was selected as the appropriate time point to examine the effects of glucocorticoids (FIG. 1c).
To confirm the nature of apparent new vessels, endothelial cells were identified by uptake of fluorescent-labelled acetylated low-density lipoprotein (DiI-Ac-LDL)(Biogenesis, Dorset UK) FIG. 1b).

[2] = system: subcutaneous sponge implants in mice; test: Subcutaneous sponge implant assay (vessel density, Chalkley counts); assay type: in vivo, mouse; details: 20 days; for effect of steroid-impregnated sponge on angiogenesis in vivo: 2 mg steroid in silastic insert
Procedure: (§1) Mice were anaesthetized with halothane and a sterilised sponge cylinder (0.5 cm×1 cm) (Caligen-Foam Ltd., UK) was implanted subcutaneously on each flank. Sponges contained a silastic insert (Silastic 20 medical grade, Dow Corning Corporation, USA) impregnated with vehicle, 2 mg of cortisol or cortisone, or 5 mg of RU38486. […] Such inserts release their impregnated compounds in vivo at a constant rate for 3 weeks. Human steroids (cortisol and cortisone, equivalent to corticosterone and 11-dehydrocorticosterone) were used to allow distinction from endogenous steroids. In separate experiments (not shown) angiogenesis in placebo-impregnated sponges was not altered by the presence or absence of a contralateral steroid-treated sponge.
(§2) Twenty days following implantation, mice were decapitated, sponges excised and inserts removed. Sponges were bisected; one half was fixed in 10% formalin and embedded in paraffin wax. Sections (8 μm) were stained with haematoxylin and eosin (H&E). The second half of the sponge was weighed, homogenised in 2 ml sterile phosphate buffered saline at 4° C. and centrifuged (2000 g; 30 minutes). Steroids were extracted from the supernatant using ethyl acetate and cortisol quantified using a specific radioimmunoassay (Amersham Pharmacia Biotech, UK). Sponge vessel density was determined by using the mean of triplicate Chalkley counts on 2 sections per sponge.

mouse aortic rings [3] = test: Angiogenesis in mouse aortic rings embedded in Matrigel (new vessel count); assay type: cell-based; details: wild type rings, drug 10^−6 M, 11-dehydrocorticosterone 600 nM
in vivo = details: mouse; for concentration at 20 days: Cortisol level
Procedure: as §1, §2

[4] = aortic rings from 11βHSD-1 −/− mice, glucocorticoid 600 nM, compared with wild type
[5] = wild type C57B16 aortic rings, 7-day incubation, physiological concentrations (up to 600 nM)
[6] = wild type rings, listed as Carbenoxolone

Compound: C[C@]12CC(=O)[C@H]3[C@@H](CCC4=CC(=O)CC[C@@]43C)[C@@H]1CC[C@@H]2C(=O)CO [11-dehydrocorticosterone]
- effect of glucocorticoid on angiogenesis in aortic rings (mouse aortic rings [1]; [4]): did not inhibit angiogenesis
- effect of glucocorticoid on angiogenesis in aortic rings (mouse aortic rings [1]; [5]): inhibited angiogenesis; also recorded: angiostatic effect

Compound: CC#C[C@]1(O)CC[C@H]2[C@@H]3CCC4=CC(=O)CCC4=C3[C@@H](c3ccc(N(C)C)cc3)C[C@@]21C [RU38486]
- effect on the angiostatic effect of corticosterone (mouse aortic rings [1]; wild type rings): prevented
- direct effect on angiogenesis in aortic rings (drug alone) (mouse aortic rings [1]; wild type rings): did not affect; also recorded: no effect
- new vessel formation in RU38486 impregnated sponges versus contralateral controls ([2]; wild type C57B16 mice, 5 mg in silastic insert): increased; also recorded: greater
- effect on the angiostatic effect of 11-dehydrocorticosterone (mouse aortic rings [3]): prevented

Compound: CC1(C)[C@@H](OC(=O)CCC(=O)O)CC[C@]2(C)[C@H]3C(=O)C=C4[C@@H]5C[C@@](C)(C(=O)O)CC[C@]5(C)CC[C@@]4(C)[C@]3(C)CC[C@@H]12 [carbenoxolone]
- effect on angiogenesis in aortic rings at high concentration (mouse aortic rings [1]; wild type rings, 10^−4 M): abolished angiogenesis
- effect on the angiostatic effect of corticosterone (mouse aortic rings [1]; wild type rings): did not potentiate; also recorded: did not influence
- effect on the angiostatic effect of corticosterone (mouse aortic rings [1]; [6]): no effect
- direct effect on angiogenesis in aortic rings (drug alone) (mouse aortic rings [1]; wild type rings): no direct effect
- direct effect on angiogenesis in aortic rings (drug alone) (mouse aortic rings [1]; [6]): no effect
- effect on the angiostatic effect of 11-dehydrocorticosterone (mouse aortic rings [3]): prevented

Compound: C[C@]12C[C@H](O)[C@H]3[C@@H](CCC4=CC(=O)CC[C@@]43C)[C@@H]1CC[C@@H]2C(=O)CO [corticosterone]
- effect of glucocorticoid on angiogenesis in aortic rings (mouse aortic rings [1]; [4]): inhibited to a similar degree; also recorded: not different between strains
- effect of glucocorticoid on angiogenesis in aortic rings (mouse aortic rings [1]; [5]): inhibited angiogenesis

- concentration at 20 days (in vivo; 11bHSD-1 −/−, contralateral placebo treated sponge): 135 ± 46 ng/g
- concentration at 20 days (in vivo; 11bHSD-1 −/−, ipsilateral steroid treated sponge): 3780 ± 1700 ng/g
- sponge cortisol concentrations, in words (in vivo): similar
- concentration at 20 days (in vivo; wild type, contralateral placebo treated sponge): 161 ± 18 ng/g
- concentration at 20 days (in vivo; wild type, ipsilateral steroid treated sponge): 4270 ± 186 ng/g
Compound: C[C@]12CCC(=O)C=C1CC[C@@H]1[C@@H]2[C@@H](O)C[C@@]2(C)[C@H]1CC[C@]2(O)C(=O)CO [cortisol]
- effect of steroid-impregnated sponge on angiogenesis in vivo ([2]; 11βHSD-1 −/− mice): inhibited angiogenesis to a similar degree
- effect of steroid-impregnated sponge on angiogenesis in vivo ([2]; 11βHSD-1 −/− mice, listed as Cortisol): inhibited angiogenesis
- effect of steroid-impregnated sponge on angiogenesis in vivo ([2]; wild type C57B16 mice): inhibited angiogenesis

- sponge cortisol concentrations after impregnation with cortisone compared with cortisol, in words (in vivo): lower
- sponge cortisol concentrations, in words (in vivo): did not elevate
Compound: C[C@]12CCC(=O)C=C1CC[C@@H]1[C@@H]2C(=O)C[C@@]2(C)[C@H]1CC[C@]2(O)C(=O)CO [cortisone]
- effect of steroid-impregnated sponge on angiogenesis in vivo ([2]; 11βHSD-1 −/− mice): did not inhibit angiogenesis; also recorded: only in wild type mice
- effect of steroid-impregnated sponge on angiogenesis in vivo ([2]; wild type C57B16 mice): inhibited angiogenesis

Compound: CC(=O)S[C@@H]1CC2=CC(=O)CC[C@]2(C)[C@H]2CC[C@@]3(C)[C@@H](CC[C@@]34CCC(=O)O4)[C@H]12 [spironolactone]
- effect on the angiostatic effect of corticosterone (mouse aortic rings [1]; wild type rings): no effect
- direct effect on angiogenesis in aortic rings (drug alone) (mouse aortic rings [1]; wild type rings): no effect
- effect on the angiostatic effect of 11-dehydrocorticosterone (mouse aortic rings [3]): no effect

Reference: patent publication US20080033046A1, “Treatment of myocardial infarction with 11HSD1 inhibitors” (University of Edinburgh, priority 2004, published 2008)
